Assay results as given in patent US10829520B2, “Beta-hairpin peptidomimetics” (POLYPHOR AG, priority 2015, dated 2020).
*1 amine or outer side, *2 acyl side, *3 side chain or, on linkers, in order; H or OH if unused. Where a SMILES comes first, the peptide text is derived from it. Bridges are numbered along the chain shown (N, C = ends). Roman numbers before positions name the chains, in order. [ ]: non-standard residue; d: D form. X1 = CC(C)NC[C@H](N[*:1])C(=O)[*:2]; Cha = N[C@@H](CC1CCCCC1)C(=O)O; Tle = CC(C)(C)[C@H](N)C(=O)O; NMeC = CN[C@@H](CS)C(=O)O; dDab = NCC[C@@H](N)C(=O)O; Nle = CCCC[C@H](N)C(=O)O; Orn = NCCC[C@H](N)C(=O)O; Dab = NCC[C@H](N)C(=O)O; dAze = O=C(O)[C@H]1CCN1; Dap = NC[C@H](N)C(=O)O; Aib = CC(C)(N)C(=O)O; Sar = CNCC(=O)O

Assays:
Type in all cases: cell-based
[1] = system: human red blood cells (hRBC); test: Hemolysis of human red blood cells; details: red cells of human, 1 h
Summary of the method: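 hRBC washed 3× PBS; 20% v/v, ~0.9×10^9 cells/mL final. Peptide 100 μg/mL, 1 h, 37° C., 300 rpm. Spin, supernatant diluted 8×, OD540. 0% = PBS + 0.001% acetic acid; 100% = 2.5% Triton X-100. % hemolysis = OD540 peptide/OD540 full lysis × 100.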

[2] = system: Escherichia coli ATCC 25922; details: ATCC 25922
Summary of the method: (§1)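 CLSI broth microdilution; MH-II (cation-adjusted) + 0.002% P-80; ~10^6 CFU/mL inoculum; peptide two-fold serial dilutions; 18-20 h, 35° C; MIC = no visible growth, μg/mL.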

[3] = system: Pseudomonas aeruginosa ATCC 27853; details: ATCC 27853
Summary of the method: as §1

[4] = system: Acinetobacter baumannii 872842; details: 872842
[5] = system: Klebsiella pneumoniae SSI #3010; details: SSI #3010
Summary of the method: as §1

[6] = system: Acinetobacter baumannii DSM 30008; details: DSM 30008
Summary of the method: as §1

Escherichia coli 926415 = details: 926415
[7] = system: Klebsiella pneumoniae 968733; details: 968733

Row | Compound | Hemolysis at 100 μg/mL ([1]; 100 μg/mL) | Escherichia coli ATCC 25922 MIC [2] | Pseudomonas aeruginosa ATCC 27853 MIC [3] | Acinetobacter baumannii 872842 MIC [4] | Klebsiella pneumoniae SSI #3010 MIC [5] | Acinetobacter baumannii DSM 30008 MIC [6] | Escherichia coli 926415 MIC (Escherichia coli 926415) | Klebsiella pneumoniae 968733 MIC [7] | Hemolysis at 100 μg/mL [1]; 100
1 | CC(C)C[C@@H]1NC(=O)[C@@H](CC(C)C)NC(=O)[C@H](CCN)NC(=O)[C@@H](NC(=O)[C@H](CCN)NC(=O)[C@@H](CCN)NC(=O)[C@@H](NC(=O)[C@H](CCCN)NC(=O)[C@@H]2CSSC[C@H](NC(=O)[C@@H](N)Cc3c[nH]c4ccccc34)C(=O)N[C@@H](C(C)C)C(=O)NCC(=O)N[C@@H](CO)C(=O)N3CCC[C@@H]3C(=O)N3CCC[C@H]3C(=O)N[C@@H](C(C)C)C(=O)N[C@@H](CN)C(=O)N[C@@H](Cc3ccc(O)cc3)C(=O)N2)[C@@H](C)O)CCNC(=O)[C@H]([C@@H](C)O)NC(=O)[C@H](CCN)NC(=O)[C@H](CCN)NC1=O [Ex. 136] (H-WCVGS[dP]PV[Dap]YC[Orn]T[dDab][Dab][Dab][Dab][dL]L[Dab][Dab]T; disulfide 2-11; lactam 16-C) | <1% | 0.5 µg/mL | 0.25 µg/mL | 0.25 µg/mL | 1 µg/mL | 1 µg/mL | 0.5 µg/mL | 4 µg/mL | –
2 | CC(C)C[C@@H]1NC(=O)[C@@H](CC(C)C)NC(=O)[C@H](CCN)NC(=O)[C@@H](NC(=O)[C@H](CCN)NC(=O)[C@@H](NC(=O)[C@H](CCN)NC(=O)CN(C)C(=O)[C@H](CCN)NC(=O)[C@H](Cc2ccc(O)cc2)NC(=O)[C@@H]2CSSC[C@H](NC(=O)[C@@H](NC(=O)[C@H](CCN)NC(=O)[C@@H](N)Cc3c[nH]c4ccccc34)C(C)(C)C)C(=O)N[C@@H](CO)C(=O)N3CCC[C@@H]3C(=O)N3CCC[C@H]3C(=O)N[C@@H](CC(C)C)C(=O)N2)[C@@H](C)O)CCNC(=O)[C@H]([C@@H](C)O)NC(=O)[C@H](CCN)NC(=O)[C@H](CCN)NC1=O [Ex. 161] (H-W[Dab][Tle]CS[dP]PLCY[Dab][Sar][Dab]T[Dab][Dab][Dab][dL]L[Dab][Dab]T; disulfide 4-9; lactam 16-C) | <1% | 0.0625 µg/mL | 0.5 µg/mL | 0.5 µg/mL | 0.125 µg/mL | 0.25 µg/mL | 0.25 µg/mL | 2 µg/mL | –
3 | CCCC[C@@H]1NC(=O)[C@@H]2CCCN2C(=O)[C@H]2CCCN2C(=O)[C@H](CO)NC(=O)[C@H](CO)NC(=O)[C@H](C(C)(C)C)NC(=O)[C@@H](NC(=O)[C@@H](N)Cc2c[nH]c3ccccc23)CSSC[C@@H](C(=O)N[C@@H](CCCN)C(=O)N[C@H](C)C(=O)N[C@H](CCN)C(=O)N[C@H]2CCNC(=O)[C@H]([C@@H](C)O)NC(=O)[C@H](CCN)NC(=O)[C@H](CCN)NC(=O)[C@H](CC(C)C)NC(=O)[C@@H](Cc3ccccc3)NC(=O)[C@H](CCN)NC2=O)NC(=O)[C@H](Cc2ccc(O)cc2)NC(=O)[C@H](CO)NC1=O [Ex. 104] (H-WC[Tle]SS[dP]P[Nle]SYC[Orn][dA][dDab][Dab][Dab][dF]L[Dab][Dab]T; disulfide 2-11; lactam 15-C) | 3% | 0.25 µg/mL | 1 µg/mL | 0.25 µg/mL | 0.5 µg/mL | 0.5 µg/mL | 0.25 µg/mL | 1 µg/mL | –
4 | CC(C)C[C@@H]1NC(=O)[C@@H](CC(C)C)NC(=O)[C@H](CCN)NC(=O)[C@@H](NC(=O)[C@H](CCN)NC(=O)[C@@H](NC(=O)[C@H](CCN)NC(=O)CC[C@@H]2NC(=O)[C@H](CCN)NC(=O)[C@H](Cc3ccc(O)cc3)NC(=O)[C@H]([C@@H](C)O)NC(=O)[C@H](C(C)C)NC(=O)[C@@H]3CCCN3C(=O)[C@H]3CCN3C(=O)[C@H](CO)NC(=O)[C@H](C)NC(=O)[C@H](C(C)(C)C)NC(=O)[C@H](CCN)NC(=O)[C@H](Cc3c[nH]c4ccccc34)NC(=O)[C@H](CCN)NC(=O)[C@@H](CCN)NC2=O)[C@@H](C)O)CCNC(=O)[C@H]([C@@H](C)O)NC(=O)[C@H](CCN)NC(=O)[C@H](CCN)NC1=O [Ex. 82] (I: cyclo(AS[dAze]PVTY[Dab]E[dDab][Dab]W[Dab][Tle]) / II: [Dab]T[Dab][Dab][Dab][dL]L[Dab][Dab]T; amide I:9-II:N; lactam II:4-II:C) | – | 0.5 µg/mL | 0.5 µg/mL | 0.5 µg/mL | 0.5 µg/mL | 1 µg/mL | 0.5 µg/mL | 0.5 µg/mL | <1%
5 | CC(=O)N[C@@H](Cc1c[nH]c2ccccc12)C(=O)N[C@H]1CSSC[C@@H](C(=O)N[C@@H](CCCN)C(=O)N[C@H](C(=O)N[C@@H](CCN)C(=O)N[C@@H](CCN)C(=O)N[C@H]2CCNC(=O)[C@H]([C@@H](C)O)NC(=O)[C@H](CCN)NC(=O)[C@H](CCN)NC(=O)[C@H](CC(C)C)NC(=O)[C@@H](Cc3ccccc3)NC(=O)[C@H](CCN)NC2=O)[C@@H](C)O)NC(=O)[C@H](CC2CCCCC2)NC(=O)[C@H](CNC(C)C)NC(=O)[C@H](Cc2c[nH]c3ccccc23)NC(=O)[C@@H]2CCCN2C(=O)[C@H]2CCCN2C(=O)[C@H](CO)NC(=O)[C@H](C)NC(=O)[C@H](C(C)(C)C)NC1=O [Ex. 139] (Ac-WC[Tle]AS[dP]PW[X1][Cha]C[Orn]T[Dab][Dab][Dab][Dab][dF]L[Dab][Dab]T; disulfide 2-11; lactam 16-C) | 4% | 2 µg/mL | 2 µg/mL | 2 µg/mL | 2 µg/mL | 1 µg/mL | 1 µg/mL | 4 µg/mL | –
6 | CCCC[C@@H]1NC(=O)[C@@H]2CCCN2C(=O)[C@H]2CCCN2C(=O)[C@H](CO)NC(=O)[C@H](C)NC(=O)[C@H](C(C)(C)C)NC(=O)[C@@H](NC(=O)[C@H](Cc2c[nH]c3ccccc23)NC(C)=O)CSSC[C@@H](C(=O)N[C@@H](CCN)C(=O)NC(C)(C)C(=O)N[C@@H](CCN)C(=O)N[C@H]2CCNC(=O)[C@H]([C@@H](C)O)NC(=O)[C@H](CCN)NC(=O)[C@H](CCN)NC(=O)[C@H](CC(C)C)NC(=O)[C@@H](Cc3ccccc3)NC(=O)[C@H](CCN)NC2=O)NC(=O)[C@H](Cc2ccc(O)cc2)NC(=O)[C@H](CO)NC1=O [Ex. 23] (Ac-WC[Tle]AS[dP]P[Nle]SYC[Dab][Aib][Dab][Dab][Dab][dF]L[Dab][Dab]T; disulfide 2-11; lactam 15-C) | 1% | 0.25 µg/mL | 0.5 µg/mL | 0.5 µg/mL | 0.25 µg/mL | 0.5 µg/mL | 0.5 µg/mL | 2 µg/mL | –
7 | CCCC[C@@H]1NC(=O)[C@@H]2CCCN2C(=O)[C@H]2CCCN2C(=O)[C@H](CO)NC(=O)[C@H](C)NC(=O)[C@H](C(C)(C)C)NC(=O)[C@@H](NC(=O)[C@H](Cc2c[nH]c3ccccc23)NC(=O)[C@@H](N)CCCN)CSSC[C@@H](C(=O)N[C@@H](CCN)C(=O)N[C@H](C(=O)N[C@@H](CCN)C(=O)N[C@H]2CCNC(=O)[C@H]([C@@H](C)O)NC(=O)[C@H](CCN)NC(=O)[C@H](CCN)NC(=O)[C@H](CC(C)C)NC(=O)[C@@H](Cc3ccccc3)NC(=O)[C@H](CCN)NC2=O)[C@@H](C)O)NC(=O)[C@H](Cc2ccc(O)cc2)NC(=O)[C@H](CO)NC1=O [Ex. 38] (H-[Orn]WC[Tle]AS[dP]P[Nle]SYC[Dab]T[Dab][Dab][Dab][dF]L[Dab][Dab]T; disulfide 3-12; lactam 16-C) | 1% | 0.25 µg/mL | 0.25 µg/mL | 0.5 µg/mL | 0.25 µg/mL | 0.5 µg/mL | 0.125 µg/mL | 2 µg/mL | –
8 | CCCC[C@@H]1NC(=O)[C@@H]2CCCN2C(=O)[C@H]2CCCN2C(=O)[C@H](CO)NC(=O)[C@H](Cc2ccc(O)cc2)NC(=O)[C@H](C(C)(C)C)NC(=O)[C@H](CCN)NC(=O)[C@H](Cc2c[nH]c3ccccc23)NC(=O)[C@@H](NC)CSSC[C@@H](C(=O)N[C@H](CCN)C(=O)N[C@H]2CCNC(=O)[C@H]([C@@H](C)O)NC(=O)[C@H](CCN)NC(=O)[C@H](CCN)NC(=O)[C@H](CC(C)C)NC(=O)[C@@H](CC(C)C)NC(=O)[C@H](CCN)NC2=O)NC(=O)[C@H](CCCN)NC(=O)[C@H](CCN)NC(=O)[C@H](Cc2ccc(O)cc2)NC(=O)[C@H](CO)NC1=O [Ex. 207] (H-[NMeC]W[Dab][Tle]YS[dP]P[Nle]SY[Dab][Orn]C[dDab][Dab][Dab][dL]L[Dab][Dab]T; disulfide 1-14; lactam 16-C) | 1% | 0.125 µg/mL | 2 µg/mL | 1 µg/mL | 0.125 µg/mL | 2 µg/mL | 0.25 µg/mL | 0.5 µg/mL | –
